# T1: Undecaprenyl pyrophosphate synthase (UPPS) (Helicobacter pylori, UniProt P55984)
# T1 sequence (P55984 1-234): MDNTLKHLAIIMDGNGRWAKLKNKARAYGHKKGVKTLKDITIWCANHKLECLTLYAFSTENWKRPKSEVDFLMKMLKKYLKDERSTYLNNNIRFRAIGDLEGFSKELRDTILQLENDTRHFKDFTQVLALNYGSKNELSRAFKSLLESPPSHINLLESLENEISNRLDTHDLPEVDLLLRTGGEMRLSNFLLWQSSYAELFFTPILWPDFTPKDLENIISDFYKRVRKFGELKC
# B1: Undecaprenyl pyrophosphate synthase (UPPS) (Helicobacter pylori 26695) (protein)
# chain: T1 sequence (P55984 1-234)
# Tests used:
# [1] = target: Undecaprenyl pyrophosphate synthase (UPPS) (Helicobacter pylori, UniProt P55984, C234A)
# [2] = target: T1, Undecaprenyl pyrophosphate synthase (UPPS); test: enzyme activity dose-response with […] UPPS; type: biochemical
# [3] = target: T2, Undecaprenyl pyrophosphate synthase (UPPS) (Escherichia coli, UniProt P60472); test: enzyme activity dose-response with […] UPPS; type: biochemical
# T2 construct: gene ispU
# [4] = system: C=C(C)CCO[P@@](=O)(O)OP(=O)(O)O; test: steady-state enzyme kinetics (Km); type: biochemical, Helicobacter pylori; conditions: Mg2+
# [5] = system: CC(C)=CCC/C(C)=C/CC/C(C)=C/CO[P@@](=O)(O)OP(=O)(O)O; test: steady-state enzyme kinetics (Km); type: biochemical, Helicobacter pylori; conditions: Mg2+
# [6] = substrate: C=C(C)CCO[P@@](=O)(O)OP(=O)(O)O; test: steady-state enzyme kinetics (Km); type: biochemical, Helicobacter pylori; conditions: Mg2+; remark: listed apart in the source
# [7] = substrate: CC(C)=CCC/C(C)=C/CC/C(C)=C/CO[P@@](=O)(O)OP(=O)(O)O; test: steady-state enzyme kinetics (Km); type: biochemical, Helicobacter pylori; conditions: Mg2+; remark: listed apart in the source
# T2 sequence (P60472 whole entry): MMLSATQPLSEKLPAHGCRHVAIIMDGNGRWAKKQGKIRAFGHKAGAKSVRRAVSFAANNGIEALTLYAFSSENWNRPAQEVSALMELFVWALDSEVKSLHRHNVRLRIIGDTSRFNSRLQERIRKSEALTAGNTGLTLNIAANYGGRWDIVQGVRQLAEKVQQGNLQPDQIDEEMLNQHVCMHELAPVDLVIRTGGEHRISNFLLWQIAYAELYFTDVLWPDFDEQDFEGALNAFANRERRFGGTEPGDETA
molecule,measurement,setting,value
O=P(O)(O)OP(=O)(O)O [pyrophosphate],"X-ray crystal structure at 2.5 Å (crystals soaked with FsPP, IPP and MgCl2); only",[1],only the pyrophosphate of FsPP was found in the complex structure
O=S(=O)(CS(=O)(=O)Nc1nc2ccc(Cl)cc2s1)Nc1nc2ccc(Cl)cc2s1 [BTB06061],IC50,[2],350 µM
same,IC50,[3],71 µM
NS(=O)(=O)c1cccc(-c2ccc(C3Nc4ccccc4-c4nc5ccccc5n43)o2)c1 (centres unmarked) [HTS04781],IC50,[2],362 µM
Undecaprenyl pyrophosphate synthase (UPPS) (Helicobacter pylori 26695; C234A),Km,[4],9.6 ± 0.2 µM
same,Km,[5],0.15 ± 0.04 µM
B1,Km,[6],9.2 ± 0.1 µM
same,Km,[7],0.11 ± 0.02 µM

# From PMC2276626, “Structure-Based Inhibitors Exhibit Differential Activities against Helicobacter pylori and Escherichia coli Undecaprenyl Pyrophosphate Synthases” (Journal of Biomedicine and Biotechnology, 2008)
